According to patent US20120309734A1, “COMBRETASTATIN DERIVATIVES AND USES THEREFOR” (priority 2009, published 2012):
Like-named read-outs stand apart in the source and are kept apart here.

Columns and labels:
[1] = system: human chronic myeloid leukaemia K562 cells; assay: MTT cell viability assay; assay type: cell-based; details: read-out: Inhibition of cell viability (IC50 value, nM) K562
[2] = system: primary CML cells (BCR-ABL-positive); assay: Apoptosis in ex vivo CML cells, annexin V staining; assay type: cell-based, human; details: 72 h
Description: This study is the first pre-clinical evaluation of combretastatins in the treatment of chemotherapy naive and patients with acquired imatinib mesylate resistance (refractory or relapsed disease despite adequate dose and duration). Imatinib mesylate is the first line treatment in BCR-ABL-positive CML chemotherapy. BCR-ABL, a constitutively active protein tyrosine kinase is a product of the Philadelphia chromosome (Ph) translocation t(9;22) and plays a central role in the pathogenesis of CML. […] All cells were treated with a clinically achievable concentration of imatinib mesylate (indicated as STI in FIG. 3) [250 nM]. […] The percentage apoptosis was determined by flow cytometric analysis of annexin-V stained cells.
The percentage of apoptosis in ex-vivo CML cells was determined by annexin V staining. […] Cells were collected by centrifugation at 400×g for 5 min and resuspended in anti-CD-45 diluted 1:50 in RPMI medium. Following a 10 min incubation in the dark at room temperature, cells were centrifuged and washed in Annexin binding buffer (Biosource, Nivelles, Belgium). Cells were again centrifuged and resuspended in Annexin-V-FITC (IQ products, Netherlands) diluted in Annexin binding buffer (1:50). Samples were next incubated in the dark on ice for 15 min. Annexin binding buffer (1 ml) was added to each sample. Samples were collected by centrifugation and resuspended in 0.5 ml of Annexin binding buffer. Cells were read immediately by flow cytometry and analysed by Cellquest software. CML cells were selected and gated based on their low to medium side scatter and low CD45 expression.

HL-60-BCRP = assay: Alamar Blue cell viability assay
Protocol: (§1) Three drug resistant cell lines and respective parental cell lines were assessed. […] Western blot analysis confirmed the overexpression of p-glycoprotein and BCRP in respective cell lines.
(§2) Cells were exposed to multiple concentrations of the indicated compound for 72 h. Cell viability was assessed using the Alamar blue assay and respective IC50 values were calculated. The resistance factor (RF) was calculated by dividing the IC50 of the resistant cell line/IC50 of the parental cell line.
(§3) All cells were cultured in RPMI-1640 Glutamax medium supplemented with 10% FCS media, 100 units/ml penicillin and 100 μg/mIstreptomycin. Cells were maintained at 37° C. in 5% CO2 in a humidified incubator.
(§4) The reduction of Alamar Blue is proportional to the number of viable cells. Cells (200 μl) were plated in triplicate in a 96-well plates (K562, 100,000/ml; HL-60, 300,000/ml; A-2780 50,000/ml). A-2780 cells were plated 24 h prior to treatment. Suspension cells were plated in the log phase of growth and treated immediately. The cells were then treated with either medium alone, vehicle (1% ethanol v/v or 0.1% DMSO v/v) or with a range of concentrations of drug [0.001-10 μM]. After 72 h, Alamar Blue was added to each well (10% of final volume) and fluorescence was read using a 96-well fluorometer with excitation at 530 nm and emission of 590 nm. The blank solution consisted of medium and Alamar Blue and the blank solution was used to calibrate the spectrophotometer to zero absorbance. The relative cell viability (%) related to control wells and was calculated by [A]test/[A]control×100 where [A]test is the absorbance of the drug treated cells and [A]control the absorbance of the vehicle control treated cells. Dose response curves were plotted and IC50 values (concentration of drug resulting in 50% reduction in cell survival) were obtained using the commercial software package Prism (GraphPad Software, Inc., La Jolla, USA). Experiments were performed in triplicate on at least three separate occasions.

HL-60-MDR(PGP) = assay: Alamar Blue cell viability assay; assay type: cell-based, human
Protocol: as §1, §2, §3, §4

p-glycoprotein = molecular target: T1, p-glycoprotein (Homo sapiens, UniProt P08183); assay: Anti-proliferative effects in multi-drug resistant cells, conclusion on efflux; assay type: cell-based; details: concluded from resistance factors
T1 construct: HL-60-MDR (overexpress p-glycoprotein); endogenous in cells; host or cells: HL-60-MDR, A2780-ADR
Protocol: as §1, §2

A2780-ADR (PGP) = assay: Alamar Blue cell viability assay
Protocol: as §1, §2, §3, §4

[3] = system: human promyelocytic leukaemia HL-60 cells; assay: MTT cell viability assay; assay type: cell-based; details: read-out: Inhibition of cell viability (IC50 value, nM) HL-60
HL-60 parental = assay: Alamar Blue cell viability assay; assay type: cell-based; details: Homo sapiens, 72 h
Protocol: as §2
(§5) A2780-parental and A2780-ADR resistant cells were provided by the Beatson Institute of Cancer Research, Glasgow. […] All cells were cultured in RPMI-1640 Glutamax medium supplemented with 10% FCS media, 100 units/ml penicillin and 100 μg/mIstreptomycin. Cells were maintained at 37° C. in 5% CO2 in a humidified incubator.
as §4

[4] = system: normal mouse mammary epithelial cells; assay: Viability of normal mammary epithelial cells; assay type: cell-based; details: 72 hr treatment
[5] = system: normal mouse mammary epithelial cells; assay: Viability of normal mammary epithelial cells; assay type: cell-based; details: for Percent viability of normal mammary epithelial cells compared to control: 10 nM, 72 hr treatment; for effects on normal mammary epithelial cells: up to 10 μM
Protocol: The maximum toxicity elicited by these drugs on normal cells at a concentration of 10 nM was only 8% (see Table 4).

A2780-parental = assay: Alamar Blue cell viability assay; assay type: cell-based; details: 72 h
Protocol: as §2, §5, §4

[6] = In vitro stability in plasma; assay type: in vitro ADME; details: human plasma
[7] = system: MCF-7 breast cancer cell line; assay: Antiproliferation study, MTT cell viability assay; assay type: cell-based; details: Homo sapiens
Protocol: All assays were performed in triplicate for the determination of mean values reported. Compounds were assayed as the free bases isolated from reaction. The human breast tumour cell line MCF-7 was cultured in Eagles minimum essential medium in a […] atmosphere with 10% fetal bovine serum, 2 mM L-glutamine and 100 μg/mL penicillin/streptomycin. The medium was supplemented with 1% non-essential amino acids. MDA-MB-231 cells were maintained in Dulbecco's Modified Eagle's medium (DMEM), supplemented with 10% (v/v) Fetal bovine serum, 2 mM L-glutamine and 100 μg/mL penicillin/streptomycin (complete medium). Cells were trypsinised and seeded at a density of 2.5×10^4 cells/ml in a 96-well plate and incubated at 37° C., […] atmosphere for 24 h. […] Control wells contained the equivalent volume of the vehicle ethanol (1% v/v). The culture medium was then removed and the cells washed with 100 μL phosphate buffered saline (PBS) and 50 μL MTT added, to reach a final concentration of 1 mg/mL MTT added. Cells were incubated for 2 h in darkness at 37° C. At this point solubilization was begun through the addition of 200 μL DMSO and the cells maintained at room temperature in darkness for 20 min to ensure thorough colour diffusion before reading the absorbance. The absorbance value of control cells (no added compound) was set to 100% cell viability and from this graphs of absorbance versus cell density per well were prepared to assess cell viability and from these, graphs of percentage cell viability versus concentration of subject compound added were drawn.

[8] = MCF7, 72 h, antiproliferative activity, MTT, 72 h, read-out: IC50 (μM) MCF-7 cell line

T1 sequence (P08183 whole entry): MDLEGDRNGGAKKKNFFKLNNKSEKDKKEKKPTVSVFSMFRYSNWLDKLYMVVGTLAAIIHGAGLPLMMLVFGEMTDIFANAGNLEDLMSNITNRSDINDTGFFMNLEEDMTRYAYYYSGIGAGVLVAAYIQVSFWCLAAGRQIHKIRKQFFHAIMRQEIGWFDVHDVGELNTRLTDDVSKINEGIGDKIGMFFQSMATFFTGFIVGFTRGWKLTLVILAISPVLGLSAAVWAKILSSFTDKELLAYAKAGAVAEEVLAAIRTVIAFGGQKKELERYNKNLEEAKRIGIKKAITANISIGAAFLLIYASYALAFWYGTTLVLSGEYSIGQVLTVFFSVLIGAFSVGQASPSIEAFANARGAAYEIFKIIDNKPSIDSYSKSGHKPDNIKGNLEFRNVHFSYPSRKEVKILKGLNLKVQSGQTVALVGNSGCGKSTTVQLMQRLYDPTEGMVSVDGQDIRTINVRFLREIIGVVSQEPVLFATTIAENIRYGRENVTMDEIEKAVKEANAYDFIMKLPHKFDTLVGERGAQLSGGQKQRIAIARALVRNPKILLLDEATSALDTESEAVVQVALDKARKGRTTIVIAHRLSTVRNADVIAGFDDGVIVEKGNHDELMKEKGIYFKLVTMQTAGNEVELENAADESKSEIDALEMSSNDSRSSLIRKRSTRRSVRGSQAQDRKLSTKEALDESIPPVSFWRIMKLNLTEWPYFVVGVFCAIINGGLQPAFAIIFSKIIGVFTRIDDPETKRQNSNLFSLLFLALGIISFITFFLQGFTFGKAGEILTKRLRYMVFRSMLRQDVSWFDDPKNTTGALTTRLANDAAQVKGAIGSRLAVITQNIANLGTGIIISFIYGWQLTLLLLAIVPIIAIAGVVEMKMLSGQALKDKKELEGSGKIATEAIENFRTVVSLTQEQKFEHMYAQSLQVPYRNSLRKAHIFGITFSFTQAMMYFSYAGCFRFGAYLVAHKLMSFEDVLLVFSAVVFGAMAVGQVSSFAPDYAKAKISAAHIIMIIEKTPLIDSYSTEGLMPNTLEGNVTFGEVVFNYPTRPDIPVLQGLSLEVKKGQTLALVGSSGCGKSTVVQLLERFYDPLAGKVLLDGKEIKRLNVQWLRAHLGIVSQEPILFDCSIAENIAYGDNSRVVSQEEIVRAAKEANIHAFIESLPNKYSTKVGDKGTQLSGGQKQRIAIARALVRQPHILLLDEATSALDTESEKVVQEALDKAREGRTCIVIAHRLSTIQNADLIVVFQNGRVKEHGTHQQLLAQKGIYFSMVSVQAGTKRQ

Compound	IC50 [1] [nM]	IC50 [3] [nM]	Percent viability of normal mammary epithelial cells compared to control ([4]; 1 nM) [%]	Percent viability of normal mammary epithelial cells compared to control ([4]; 100 nM) [%]	Percent viability of normal mammary epithelial cells compared to control ([4]; 1 μM) [%]	Percent viability of normal mammary epithelial cells compared to control ([4]; 10 μM) [%]	Percent viability of normal mammary epithelial cells compared to control [5] [%]	effects on normal mammary epithelial cells [5]	IC50 [7, 8] [µM]	further results
COc1ccc(/C=C\c2cc(OC)c(OC)c(OC)c2)cc1O [CA-4, combretastatin A-4, reference compound]	3.8	4.1	98	74.8	74.7	75.0	92	minimal effects		apoptosis induction compared with imatinib mesylate ([2]; 250 nM each, patient samples): more effective inducers of apoptosis than imatinib mesylate; apoptosis in primary CML cells ([2]; 250 nM, chemotherapy naïve (4 samples) and imatinib mesylate resistant (2 samples)): induced apoptosis; IC50 (HL-60-BCRP; Homo sapiens, 72 h): 3.5 nM; RF (HL-60-BCRP; IC50 HL-60-BCRP / IC50 HL-60 parental): 0.8; IC50 (HL-60-MDR(PGP); Homo sapiens, HL60/MDR, 72 h): 3.3 nM; RF (HL-60-MDR(PGP); IC50 HL-60-MDR(PGP) / IC50 HL-60 parental): 0.73; substrate for the p-glycoprotein (p-glycoprotein): poor substrates for the p-glycoprotein; IC50 (A2780-ADR (PGP); A2780 ADR, 72 h): 6.8 nM; RF (A2780-ADR (PGP); IC50 A2780-ADR (PGP) / IC50 A2780-parental): 0.9; IC50 (HL-60 parental): 4.5 nM; IC50 (A2780-parental): 7.5 nM
COc1ccc(C2C(Oc3ccccc3)C(=O)N2c2cc(OC)c(OC)c(OC)c2)cc1O (stereo not shown) [Compound 1, 4-(3-Hydroxy-4-methoxy-phenyl)-3-phenoxy-1-(3,4,5-trimethoxy-phenyl)-azetidin-2-one]									0.038	half-life [6]: 35 h
C=CC1C(=O)N(c2cc(OC)c(OC)c(OC)c2)C1c1ccc(OC)c(O)c1 (stereo not shown) [Compound 2, 4-(3-Hydroxy-4-methoxy-phenyl)-1-(3,4,5-trimethoxy-phenyl)-3-vinyl-azetidin-2-one]	26.6	17.1	93.1	74.4	73.0	73.8	92.3	minimal effects	0.0014	IC50 ([7]; MCF7, MTT cell viability assay, read-out: Inhibition of cell viability (IC50 value, nM) MCF-7): 0.0008 to 0.0031 µM
